Data taken from paper PMC10666452, “Direct inhibition of dioxygenases TET1 by the rheumatoid arthritis drug auranofin selectively induces cancer cell death in T-ALL” (Journal of Hematology & Oncology, 2023).

Target: T1, TET1 (TET1-CD) (Homo sapiens, UniProt Q8NFU7)
T1 construct: TET1 protein
T1 sequence (Q8NFU7 1418-2136 limits assumed): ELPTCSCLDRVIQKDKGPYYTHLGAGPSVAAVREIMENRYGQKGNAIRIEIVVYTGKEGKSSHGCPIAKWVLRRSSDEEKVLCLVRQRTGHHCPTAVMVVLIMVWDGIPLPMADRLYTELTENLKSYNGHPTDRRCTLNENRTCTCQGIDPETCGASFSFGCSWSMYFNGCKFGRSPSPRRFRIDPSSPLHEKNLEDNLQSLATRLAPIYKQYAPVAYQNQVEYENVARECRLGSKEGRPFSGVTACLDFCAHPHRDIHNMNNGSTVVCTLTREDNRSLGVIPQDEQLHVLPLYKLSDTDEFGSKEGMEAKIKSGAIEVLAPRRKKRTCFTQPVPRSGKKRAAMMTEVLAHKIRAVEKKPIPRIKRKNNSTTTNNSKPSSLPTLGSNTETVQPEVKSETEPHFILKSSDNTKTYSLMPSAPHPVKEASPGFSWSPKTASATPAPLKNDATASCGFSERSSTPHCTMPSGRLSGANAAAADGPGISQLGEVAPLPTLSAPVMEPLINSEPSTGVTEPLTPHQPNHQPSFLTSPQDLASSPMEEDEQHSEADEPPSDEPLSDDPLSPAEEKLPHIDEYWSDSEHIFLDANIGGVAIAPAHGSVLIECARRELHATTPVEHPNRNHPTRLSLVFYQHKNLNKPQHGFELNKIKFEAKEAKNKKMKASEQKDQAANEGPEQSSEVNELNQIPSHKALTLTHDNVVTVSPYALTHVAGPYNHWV
Assay: SPR competition against auranofin
Type: binding
Details: competes with auranofin, 2-OG analogue

Structure (SMILES): O=C(O)CNC(=O)C(=O)O [NOG]
- SPR competition against auranofin: both NOG and Fe (II) compete with auranofin for binding to TET1-CD
